# Test results published in PubChem BioAssay AID1963436 (Molecular Pharmacology Branch, DTP, NCI, 2024).
# Test system: OVCAR-5 complex spheroid (HUVEC/MSC), viability % T/C
# Assay: Anticancer human tumor OVCAR-5 cell line growth inhibition [Asc];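 also: spheroids exposed to agents for 7 days before readout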;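 as to viability, T/C: 100% = DMSO vehicle-treated wells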
# Conditions: for IC50: curve of first compound; for viability, T/C: stronger effect = lower value
# How it was run: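 Concentration series start at each agent's clinical Cmax, or at 10 microM when none is established, and drop in half-log steps; agents are applied alone or together to complex spheroids built with HUVEC and hMSC.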
# [1] = second compound 0.01 µM, first compound 0.0316 µM
# [2] = second compound 0.01 µM, first compound 0.1 µM
# [3] = second compound 0.01 µM, first compound 0.316 µM
# [4] = second compound 0.01 µM, first compound 1 µM
# [5] = second compound 0.01 µM, first compound 3.16 µM
# [6] = second compound 0.01 µM, first compound 10 µM
# [7] = second compound 0.0316 µM, first compound 0.0316 µM
# [8] = second compound 0.0316 µM, first compound 0.1 µM
# [9] = second compound 0.0316 µM, first compound 0.316 µM
# [10] = second compound 0.0316 µM, first compound 1 µM
# [11] = second compound 0.0316 µM, first compound 3.16 µM
# [12] = second compound 0.0316 µM, first compound 10 µM
# [13] = second compound 0.1 µM, first compound 0.0316 µM
# [14] = second compound 0.1 µM, first compound 0.1 µM
# [15] = second compound 0.1 µM, first compound 0.316 µM
# [16] = second compound 0.1 µM, first compound 1 µM
# [17] = second compound 0.1 µM, first compound 3.16 µM
# [18] = second compound 0.1 µM, first compound 10 µM
# [19] = second compound 0.316 µM, first compound 0.0316 µM
# [20] = second compound 0.316 µM, first compound 0.1 µM
# [21] = second compound 0.316 µM, first compound 0.316 µM
# [22] = second compound 0.316 µM, first compound 1 µM
# [23] = second compound 0.316 µM, first compound 3.16 µM
# [24] = second compound 0.316 µM, first compound 10 µM
# [25] = second compound 1 µM, first compound 0.0316 µM
# [26] = second compound 1 µM, first compound 0.1 µM
# [27] = second compound 1 µM, first compound 0.316 µM
# [28] = second compound 1 µM, first compound 1 µM
# [29] = second compound 1 µM, first compound 3.16 µM
# [30] = second compound 1 µM, first compound 10 µM
structure (smiles),measurement,setting,value
C#Cc1c(F)ccc2cc(O)cc(-c3ncc4c(N5CC6CCC(C5)N6)nc(OCC56CCCN5CC(F)C6)nc4c3F)c12 (stereo not given) + CNC(C)C(=O)NC1CN(S(=O)(=O)c2cccc(S(=O)(=O)N3CCC4CCC(C(=O)NC(c5ccccc5)c5ccccc5)N4C(=O)C(NC(=O)C(C)NC)C3)c2)CCC2CCC(C(=O)NC(c3ccccc3)c3ccccc3)N2C1=O,IC50,second compound 0.01 µM,6860 nM
same,IC50,second compound 0.0316 µM,6230 nM
same,IC50,second compound 0.1 µM,5080 nM
same,IC50,second compound 0.316 µM,4980 nM
same,IC50,second compound 1 µM,5110 nM
same,"viability, T/C",[1],97%
same,"viability, T/C",[2],99.1%
same,"viability, T/C",[3],95.8%
same,"viability, T/C",[4],84.2%
same,"viability, T/C",[5],70.8%
same,"viability, T/C",[6],40.2%
same,"viability, T/C",[7],90.2%
same,"viability, T/C",[8],88.1%
same,"viability, T/C",[9],91.8%
same,"viability, T/C",[10],68.5%
same,"viability, T/C",[11],66.5%
same,"viability, T/C",[12],40.3%
same,"viability, T/C",[13],84.9%
same,"viability, T/C",[14],89.5%
same,"viability, T/C",[15],76.2%
same,"viability, T/C",[16],64.8%
same,"viability, T/C",[17],63.6%
same,"viability, T/C",[18],37%
same,"viability, T/C",[19],84.5%
same,"viability, T/C",[20],84.2%
same,"viability, T/C",[21],75.3%
same,"viability, T/C",[22],65.9%
same,"viability, T/C",[23],61.2%
same,"viability, T/C",[24],37.8%
same,"viability, T/C",[25],93.3%
same,"viability, T/C",[26],95.2%
same,"viability, T/C",[27],76.1%
same,"viability, T/C",[28],71%
same,"viability, T/C",[29],65%
same,"viability, T/C",[30],35.2%
C=C(F)C(=O)N1CCN(c2nc(OCC3CCCN3C)nc3c2CCN(c2cccc4cccc(Cl)c24)C3)CC1CC#N (stereo not given) + CNC(C)C(=O)NC1CN(S(=O)(=O)c2cccc(S(=O)(=O)N3CCC4CCC(C(=O)NC(c5ccccc5)c5ccccc5)N4C(=O)C(NC(=O)C(C)NC)C3)c2)CCC2CCC(C(=O)NC(c3ccccc3)c3ccccc3)N2C1=O,IC50,second compound 0.01 µM,1320 nM
same,IC50,second compound 0.0316 µM,1150 nM
same,IC50,second compound 0.1 µM,968 nM
same,IC50,second compound 0.316 µM,844 nM
same,IC50,second compound 1 µM,740 nM
same,"viability, T/C",[1],105%
same,"viability, T/C",[2],93.5%
same,"viability, T/C",[3],82.5%
same,"viability, T/C",[4],66.2%
same,"viability, T/C",[5],11.3%
same,"viability, T/C",[6],0.22%
same,"viability, T/C",[7],94.4%
same,"viability, T/C",[8],78.9%
same,"viability, T/C",[9],79%
same,"viability, T/C",[10],56.7%
same,"viability, T/C",[11],11.6%
same,"viability, T/C",[12],0.16%
same,"viability, T/C",[13],92%
same,"viability, T/C",[14],84%
same,"viability, T/C",[15],76.9%
same,"viability, T/C",[16],51.2%
same,"viability, T/C",[17],10.4%
same,"viability, T/C",[18],0.18%
same,"viability, T/C",[19],90.5%
same,"viability, T/C",[20],79.2%
same,"viability, T/C",[21],70.4%
same,"viability, T/C",[22],50.3%
same,"viability, T/C",[23],9.19%
same,"viability, T/C",[24],0.16%
same,"viability, T/C",[25],90.3%
same,"viability, T/C",[26],89.5%
same,"viability, T/C",[27],67%
same,"viability, T/C",[28],46.5%
same,"viability, T/C",[29],10.2%
same,"viability, T/C",[30],0.23%
C=CC(=O)N1CCN(c2nc(=O)n(-c3c(C)ccnc3C(C)C)c3nc(-c4c(O)cccc4F)c(F)cc23)C(C)C1 (stereo not given) + CNC(C)C(=O)NC1CN(S(=O)(=O)c2cccc(S(=O)(=O)N3CCC4CCC(C(=O)NC(c5ccccc5)c5ccccc5)N4C(=O)C(NC(=O)C(C)NC)C3)c2)CCC2CCC(C(=O)NC(c3ccccc3)c3ccccc3)N2C1=O,IC50,second compound 0.01 µM,> 10000 nM
same,IC50,second compound 0.0316 µM,> 10000 nM
same,IC50,second compound 0.1 µM,> 10000 nM
same,IC50,second compound 0.316 µM,> 10000 nM
same,IC50,second compound 1 µM,> 10000 nM
same,"viability, T/C",[1],88.4%
same,"viability, T/C",[2],89.9%
same,"viability, T/C",[3],85.9%
same,"viability, T/C",[4],100%
same,"viability, T/C",[5],115%
same,"viability, T/C",[6],105%
same,"viability, T/C",[7],74.4%
same,"viability, T/C",[8],84.4%
same,"viability, T/C",[9],83.3%
same,"viability, T/C",[10],91.2%
same,"viability, T/C",[11],106%
same,"viability, T/C",[12],104%
same,"viability, T/C",[13],76.3%
same,"viability, T/C",[14],87%
same,"viability, T/C",[15],90.6%
same,"viability, T/C",[16],88.2%
same,"viability, T/C",[17],109%
same,"viability, T/C",[18],103%
same,"viability, T/C",[19],76.4%
same,"viability, T/C",[20],83.5%
same,"viability, T/C",[21],84.9%
same,"viability, T/C",[22],90.4%
same,"viability, T/C",[23],104%
same,"viability, T/C",[24],109%
same,"viability, T/C",[25],92.9%
same,"viability, T/C",[26],100%
same,"viability, T/C",[27],90.4%
same,"viability, T/C",[28],96.7%
same,"viability, T/C",[29],103%
same,"viability, T/C",[30],102%
CCN1C(C(=O)NC23CCC(C(=O)O)(CC2)CC3)C(c2cccc(Cl)c2F)C2(C(=O)Nc3cc(Cl)ccc32)C12CCCCC2 (stereo not given) + CNC(C)C(=O)NC1CN(S(=O)(=O)c2cccc(S(=O)(=O)N3CCC4CCC(C(=O)NC(c5ccccc5)c5ccccc5)N4C(=O)C(NC(=O)C(C)NC)C3)c2)CCC2CCC(C(=O)NC(c3ccccc3)c3ccccc3)N2C1=O,IC50,second compound 0.01 µM,> 3000 nM
same,IC50,second compound 0.0316 µM,> 3000 nM
same,IC50,second compound 0.1 µM,> 3000 nM
same,IC50,second compound 0.316 µM,> 3000 nM
same,IC50,second compound 1 µM,> 3000 nM
same,"viability, T/C","second compound 0.01 µM, first compound 0.00949 µM",92.6%
same,"viability, T/C","second compound 0.01 µM, first compound 0.03 µM",96.2%
same,"viability, T/C","second compound 0.01 µM, first compound 0.0949 µM",94.8%
same,"viability, T/C","second compound 0.01 µM, first compound 0.3 µM",98%
same,"viability, T/C","second compound 0.01 µM, first compound 0.949 µM",106%
same,"viability, T/C","second compound 0.01 µM, first compound 3 µM",101%
same,"viability, T/C","second compound 0.0316 µM, first compound 0.00949 µM",84.8%
same,"viability, T/C","second compound 0.0316 µM, first compound 0.03 µM",89%
same,"viability, T/C","second compound 0.0316 µM, first compound 0.0949 µM",80.7%
same,"viability, T/C","second compound 0.0316 µM, first compound 0.3 µM",84.8%
same,"viability, T/C","second compound 0.0316 µM, first compound 0.949 µM",83.4%
same,"viability, T/C","second compound 0.0316 µM, first compound 3 µM",93.8%
same,"viability, T/C","second compound 0.1 µM, first compound 0.00949 µM",88.6%
same,"viability, T/C","second compound 0.1 µM, first compound 0.03 µM",87.9%
same,"viability, T/C","second compound 0.1 µM, first compound 0.0949 µM",88.6%
same,"viability, T/C","second compound 0.1 µM, first compound 0.3 µM",84.8%
same,"viability, T/C","second compound 0.1 µM, first compound 0.949 µM",90.7%
same,"viability, T/C","second compound 0.1 µM, first compound 3 µM",86.7%
same,"viability, T/C","second compound 0.316 µM, first compound 0.00949 µM",84.4%
same,"viability, T/C","second compound 0.316 µM, first compound 0.03 µM",85%
same,"viability, T/C","second compound 0.316 µM, first compound 0.0949 µM",79%
same,"viability, T/C","second compound 0.316 µM, first compound 0.3 µM",84.2%
same,"viability, T/C","second compound 0.316 µM, first compound 0.949 µM",94.8%
same,"viability, T/C","second compound 0.316 µM, first compound 3 µM",89.6%
same,"viability, T/C","second compound 1 µM, first compound 0.00949 µM",97.2%
same,"viability, T/C","second compound 1 µM, first compound 0.03 µM",100%
same,"viability, T/C","second compound 1 µM, first compound 0.0949 µM",86.9%
same,"viability, T/C","second compound 1 µM, first compound 0.3 µM",86.9%
same,"viability, T/C","second compound 1 µM, first compound 0.949 µM",90.1%
same,"viability, T/C","second compound 1 µM, first compound 3 µM",85.2%
COc1c(OCCCN2CCOCC2)ccc2c3n(c(=NC(=O)c4cnc(N)nc4)nc12)CCN3 + CNC(C)C(=O)NC1CN(S(=O)(=O)c2cccc(S(=O)(=O)N3CCC4CCC(C(=O)NC(c5ccccc5)c5ccccc5)N4C(=O)C(NC(=O)C(C)NC)C3)c2)CCC2CCC(C(=O)NC(c3ccccc3)c3ccccc3)N2C1=O,IC50,second compound 0.01 µM,29.5 nM
same,IC50,second compound 0.0316 µM,22.4 nM
same,IC50,second compound 0.1 µM,19.5 nM
same,IC50,second compound 0.316 µM,18.7 nM
same,IC50,second compound 1 µM,17.6 nM
same,"viability, T/C","second compound 0.01 µM, first compound 0.00316 µM",93.3%
same,"viability, T/C","second compound 0.01 µM, first compound 0.01 µM",67.4%
same,"viability, T/C",[1],48%
same,"viability, T/C",[2],35%
same,"viability, T/C",[3],17.1%
same,"viability, T/C",[4],8.86%
same,"viability, T/C","second compound 0.0316 µM, first compound 0.00316 µM",69.8%
same,"viability, T/C","second compound 0.0316 µM, first compound 0.01 µM",63.6%
same,"viability, T/C",[7],42.5%
same,"viability, T/C",[8],30.2%
same,"viability, T/C",[9],17.6%
same,"viability, T/C",[10],7.75%
same,"viability, T/C","second compound 0.1 µM, first compound 0.00316 µM",68%
same,"viability, T/C","second compound 0.1 µM, first compound 0.01 µM",61.5%
same,"viability, T/C",[13],41.5%
same,"viability, T/C",[14],26.3%
same,"viability, T/C",[15],15.9%
same,"viability, T/C",[16],7.03%
same,"viability, T/C","second compound 0.316 µM, first compound 0.00316 µM",67.1%
same,"viability, T/C","second compound 0.316 µM, first compound 0.01 µM",59.9%
same,"viability, T/C",[19],41.7%
same,"viability, T/C",[20],25.3%
same,"viability, T/C",[21],13.1%
same,"viability, T/C",[22],6.27%
same,"viability, T/C","second compound 1 µM, first compound 0.00316 µM",82.9%
same,"viability, T/C","second compound 1 µM, first compound 0.01 µM",56.1%
same,"viability, T/C",[25],42.1%
same,"viability, T/C",[26],27.1%
same,"viability, T/C",[27],12.3%
same,"viability, T/C",[28],6.51%
